US20260294769A1, “ASCORBIC ACID DERIVATIVES AND COSMETIC THEREOF” (SEIWA KASEI COMPANY, LIMITED, priority 2023, published 2026)

Columns and labels:
[1] = Stability Test-2: residual rate in cream of pH 7 or 9 stored at 50° C.; assay type: physicochemical
How it was run: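 Each test sample was formulated into a cream adjusted to pH 7 or 9: components (a) and (b) were heated and mixed separately, cooled, and then component (c) was added. The cream was held at 50° C., and the percentage of the sample compound still present (residual rate) was determined after storage.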

[2] = tested on: Normal human dermal fibroblasts (NHDF); test: Hyaluronic acid production promoting effect (ELISA of hyaluronic acid in supernatant); assay type: cell-based; settings: 10 mM or less, 48 hours, control group set to 100%, N=3
How it was run: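 NHDF seeded at 2.5×10^4 cells/well in D-MEM with 5% FBS, pre-incubated 24 h, then exposed to samples in serum-free D-MEM for 48 h. Supernatant hyaluronic acid measured by ELISA in triplicate, expressed as % of control (100%) at ≤10 mM sample.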

[3] = Stability Test-2: coloration of cream stored at 50° C.; assay type: physicochemical; settings: 10 panelists
How it was run: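 Creams were made by heating and mixing parts (a) and (b), cooling, then adding part (c), adjusting pH to 7 or 9. After storage at 50° C., ten panelists scored coloration against the freshly prepared cream: 3 for almost no change, 2 for color change, 1 for strong coloration.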

[4] = Stability Test-2: odor of cream stored at 50° C.; assay type: physicochemical; settings: 10 panelists
How it was run: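 Test creams were made by heating and mixing components (a) and (b), cooling, then adding component (c) to give a pH of 7 or 9. After storage at 50° C., 10 panelists scored odor: 3 almost odorless, 2 slight strange odor, 1 strong odor. Totals were graded ◯ (25 or more), Δ (16-24) or x (15 or less).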

[5] = tested on: Normal human epidermal keratinocytes; test: Antioxidant effect: ROS production inhibition rate (DCFHDA, H2O2); assay type: cell-based; settings: 10 mM or less, 24 hours incubation, 0.2 mM H2O2, N=4
Method: Normal human epidermal keratinocytes were seeded onto a 96-well plate using KG2 medium at a cell density of 2.0×10^4 cells/well. After 24 hours of pre-incubation, samples adjusted to a predetermined concentration in KG2 medium were added to each well. After 24 hours of incubation, the medium was removed, followed by washing with HBSS(−) and the incorporation of the ROS-reactive fluorescent probe DCFHDA for 30 minutes. The cells were again washed with HBSS(−), treated with 0.2 mM H2O2, and incubated for 2 hours. The fluorescence intensity was measured, and the amount of ROS produced per unit protein was calculated by dividing the fluorescence intensity by the amount of protein quantified by the BCA method, resulting in an analytical value of 1. Furthermore, the amount of ROS production calculated without adding the sample adjusted to a predetermined concentration using the above test method was set to analytical value 2; and the amount of ROS production calculated without adding the sample or 0.2 mM H2O2 was set to analytical value 3.
ROS production inhibition rate (%) was calculated using the following formula. The higher the ROS production inhibition rate, the greater the antioxidant effect can be evaluated to be.
The ROS production inhibition rate when the sample was measured at a concentration of 10 mM or less was evaluated as follows. Note that the measurement was performed in N=4.

[6] = tested on: Normal human dermal fibroblasts; test: Collagen production promoting effect (ELISA of free collagen in supernatant); assay type: cell-based; settings: 10 mM or less, 48 hours, control group set to 100%, N=3
Method: Normal human dermal fibroblasts were prepared in D-MEM containing 5% (v/v) fetal bovine serum to a cell density of 2.5×10^4 cells/well, and then pre-incubated for 24 hours on a 96-well plate. After removing the medium, samples prepared to a predetermined concentration in D-MEM containing 5% (v/v) fetal bovine serum were added to each well and cultured for 48 hours. After the culture was completed, the amount of free collagen in the supernatant was quantified by ELISA. Measurements were performed in triplicate (N=3).
The amount of collagen produced when the sample was measured at a concentration of 10 mM or less was compared with that of the control group, and the results (% values when the control group was set to 100%) are shown in Table 17 based on the following criteria.

[7] = cream pH 7, 50° C., after 2 weeks, 20160 min
[8] = cream pH 7, 50° C., after 4 weeks, 40320 min
[9] = cream pH 9, 50° C., after 2 weeks, 20160 min
[10] = cream pH 9, 50° C., after 4 weeks, 40320 min

Residual Rate [1, 7] | Residual Rate [1, 8] | Residual Rate [1, 9] | Residual Rate [1, 10] | Odor ([4]; after 4 weeks) | Compound | Hyaluronic acid production-promoting effect [2] | Coloration ([3]; after 2 weeks) | Coloration ([3]; after 4 weeks) | Odor ([4]; after 2 weeks) | Antioxidant effect (ROS production inhibition rate) [5] | Collagen production-promoting effect [6]
⊚ (95% or more) | ⊚ (95% or more) | ⊚ (95% or more) | ⊚ (95% or more) | Δ (Total score of 10 panelists is 16-24) | CCCC(=O)OCC(OC(=O)CCC)C1OC(=O)C2=C1OCCCCO2 (stereo not shown) [Synthesis Example 10, 5,6-O-dibutanoyl-2,3-O-(1,4-butanediyl) ascorbic acid] | ++ (120%<) | ◯ (Total score of 10 panelists is 25 or more) | ◯ (Total score of 10 panelists is 25 or more) | ◯ (Total score of 10 panelists is 25 or more) | + (<20%) | ++ (140%<)
⊚ (95% or more) | ⊚ (95% or more) | ⊚ (95% or more) | ⊚ (95% or more) | Δ (Total score of 10 panelists is 16-24) | CC(C)CCCCCCCCCCCCCCC(=O)OC[C@H](O)[C@H]1OC(=O)C2=C1OCCCCO2 [Synthesis Example 17, 6-O-isostearoyl-2,3-O-(1,4-butanediyl) ascorbic acid] | ++ (120%<) | ◯ (Total score of 10 panelists is 25 or more) | ◯ (Total score of 10 panelists is 25 or more) | ◯ (Total score of 10 panelists is 25 or more) | + (<20%) | ++ (140%<)
⊚ (95% or more) | ⊚ (95% or more) | ⊚ (95% or more) | ⊚ (95% or more) | Δ (Total score of 10 panelists is 16-24) | CCCCCCCC(=O)OCC(OC(=O)CCCCCCC)C1OC(=O)C2=C1OCCCO2 (stereo not shown) [Synthesis Example 23, 5,6-O-dioctanoyl-2,3-O-(1,3-propanediyl) ascorbic acid] | – | ◯ (Total score of 10 panelists is 25 or more) | ◯ (Total score of 10 panelists is 25 or more) | ◯ (Total score of 10 panelists is 25 or more) | + (<20%) | ++ (140%<)
⊚ (95% or more) | ⊚ (95% or more) | ⊚ (95% or more) | ⊚ (95% or more) | Δ (Total score of 10 panelists is 16-24) | CCCCCCCCCCCC(=O)OCC(O)C1OC(=O)C2=C1OCCCCO2 (stereo not shown) [Synthesis Example 13, 6-O-lauroyl-2,3-O-(1,4-butanediyl) ascorbic acid] | ++ (120%<) | ◯ (Total score of 10 panelists is 25 or more) | ◯ (Total score of 10 panelists is 25 or more) | ◯ (Total score of 10 panelists is 25 or more) | + (<20%) | –
⊚ (95% or more) | ⊚ (95% or more) | ⊚ (95% or more) | ∘ (85% or more, less than 95%) | Δ (Total score of 10 panelists is 16-24) | CCCCCCCCCCCC(=O)OCC(OC(=O)CCCCCCCCCCC)C1OC(=O)C2=C1OCCCCO2 (stereo not shown) [Synthesis Example 14, 5,6-O-dilauroyl-2,3-O-(1,4-butanediyl) ascorbic acid] | ++ (120%<) | ◯ (Total score of 10 panelists is 25 or more) | ◯ (Total score of 10 panelists is 25 or more) | ◯ (Total score of 10 panelists is 25 or more) | + (<20%) | –
